PubChem BioAssay (NCI)
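Five compound concentrations were applied to cells in 96-well plates for 48 hours; endpoints were derived by simple linear interpolation of the resulting dose-response curve. At the GI50, growth is halved. TGI marks complete inhibition of growth.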

Assays:
Assay in all cases: growth of human tumour cells (NCI), 48 h
KM12 colon = tested on: KM12 colon
SK-MEL-28 melanoma = tested on: SK-MEL-28 melanoma
NCI-H226 lung = tested on: NCI-H226 lung
OVCAR-8 ovarian = tested on: OVCAR-8 ovarian
EKVX NSCLC = tested on: EKVX NSCLC
HCT-15 colon = tested on: HCT-15 colon
U251 CNS = tested on: U251 CNS
SN12C renal = tested on: SN12C renal
SF-295 CNS = tested on: SF-295 CNS
HOP-92 NSCLC = tested on: HOP-92 NSCLC

Row | Structure (SMILES) | TGI (KM12 colon) [µM] | TGI (SK-MEL-28 melanoma) [µM] | TGI (NCI-H226 lung) [µM] | TGI (OVCAR-8 ovarian) [µM] | TGI (EKVX NSCLC) [µM] | TGI (HCT-15 colon) [µM] | TGI (U251 CNS) [µM] | TGI (SN12C renal) [µM] | TGI (SF-295 CNS) [µM] | TGI (HOP-92 NSCLC) [µM] | GI50 (KM12 colon) [µM] | GI50 (SK-MEL-28 melanoma) [µM] | GI50 (NCI-H226 lung) [µM] | GI50 (OVCAR-8 ovarian) [µM] | GI50 (EKVX NSCLC) [µM] | GI50 (HCT-15 colon) [µM] | GI50 (U251 CNS) [µM] | GI50 (SN12C renal) [µM] | GI50 (SF-295 CNS) [µM]
1 | COc1cccc(N/C(C)=C2/CCOC2=O)c1 | > 10 | > 10 | > 10 | > 10 | > 10 | > 10 | > 10 | > 10 | > 10 |  |  |  |  |  |  |  |  |  | 
2 | Cc1cc(C)cc(Nc2nnc3n2S(=O)(=O)c2cc(C)c(Cl)cc2S3)c1 | 33.2 | > 100 | 30.5 | > 100 | 52.2 | 28.3 | 22.9 | 48.5 | > 100 |  |  |  |  |  |  |  |  |  | 
3 | [N-]=[N+]=CC(=O)C1(C(=O)C=[N+]=[N-])CC1 | > 100 | > 100 | > 100 | > 100 | > 100 | > 100 | > 100 | > 100 | > 100 |  |  |  |  |  |  |  |  |  | 
4 | Cn1c(N/N=C/c2ccccc2)nc(-c2ccc3c(c2)OCO3)c(C#N)c1=O | > 100 | > 100 |  | 90.6 | > 100 | > 100 | > 100 | > 100 | > 100 | 67.2 |  |  |  |  |  |  |  |  | 
5 | C/C=C1\CC(C(=O)OCC)CCCCCCC1=O (stereo not drawn) | > 100 | > 100 | > 100 | > 100 | > 100 | > 100 | > 100 | > 100 | > 100 |  |  |  |  |  |  |  |  |  | 
6 | CC(NC(=O)Cc1ccc(OP(=O)(OCc2ccc([N+](=O)[O-])o2)N(C)CCCCCl)cc1)c1ccc(OCC2CCCCC2)c(C(N)=O)c1 (stereo not drawn) | 5.91 | 3.33 | 7.09 | 16 |  | 6.44 | 5.28 | 4.26 | 4.84 |  |  |  |  |  |  |  |  |  | 
7 | O=C(NN1C(=O)C(Cl)C1c1cccc(O)c1)c1ccccc1O (stereo not drawn) | > 100 | > 100 | > 100 | > 100 |  | > 100 | > 100 | > 100 | > 100 |  |  |  |  |  |  |  |  |  | 
8 | CON(C)c1nc(N)c(C#N)c(C#N)c1C#N | > 10 | > 10 | > 10 | > 10 | > 10 | > 10 | > 10 | > 10 | > 10 |  |  |  |  |  |  |  |  |  | 
9 | Cc1ccc2nc(N)[nH]c(=O)c2c1Sc1ccncc1 | > 100 | > 100 |  | > 100 | > 100 | > 100 | > 100 | > 100 | > 100 | > 100 |  |  |  |  |  |  |  |  | 
10 | N#C/C(=C\c1ccc(O)c(O)c1)c1c(C#N)c(N)nn1-c1ccccc1 | > 100 | > 100 |  | 29.2 | 69.7 | 36.8 | 20.6 | 39.4 | 47.7 | > 100 |  |  |  |  |  |  |  |  | 
11 | O=C([CH-]C(=O)c1ccccc1)c1ccccc1.[C-]#[O+].[C-]#[O+].[Ir] | > 100 | > 100 | > 100 | > 100 | > 100 | > 100 | > 100 | > 100 | > 100 |  | 66.1 | 87 | 33.3 | 45.4 | > 100 | 42.6 | 36.4 | 48.3 | 42.9
12 | Cc1ccc(C2(O)c3ccccc3C(=O)N(C)C2(O)c2ccc(C)cc2)cc1 (stereo not drawn) | > 100 | > 100 |  | 90.9 | > 100 | > 100 | 40.1 | > 100 | > 100 | 91.1 |  |  |  |  |  |  |  |  | 
13 | O=C(N/N=C(/COc1ccccc1)N=Cc1ccncc1)c1ccncc1 | > 100 | > 100 |  | > 100 | > 100 | > 100 | > 100 | > 100 | > 100 | > 100 |  |  |  |  |  |  |  |  | 
14 | COc1c(C)c(C/C=C(\C)CC/C=C(\C)CC/C=C(\C)CCC=C(C)C)c(OC)c(OC)c1OC | > 100 |  |  | > 100 | > 100 | > 100 | > 100 | > 100 | > 100 | > 100 |  |  |  |  |  |  |  |  | 
15 | CC(=O)Nc1ccc(-c2nnc(SCC(=O)Nc3cccc(C)c3)o2)cc1 | 22.6 | 28.6 | 30.8 | 38.9 |  | 21.6 | 26.3 | 28.5 | 22.9 | 26.2 |  |  |  |  |  |  |  |  | 
16 | CN(C)CCCNC(=O)N/N=C/c1ccc(O)cc1 | > 100 | > 100 | > 100 | > 100 |  | > 100 | > 100 | > 100 | > 100 |  |  |  |  |  |  |  |  |  | 
17 | COc1ccccc1-n1cnc2c1NC(C)(C)N=C2C(N)=O | > 100 | > 100 | > 100 | > 100 | > 100 | > 100 | > 100 | > 100 | > 100 |  |  |  |  |  |  |  |  |  | 
18 | Cc1ccc(S(=O)(=O)NC(=O)C2S(=O)(=O)OCCOS2(=O)=O)cc1 | > 100 | > 100 | > 100 | > 100 | > 100 |  |  | > 100 | > 100 | > 100 |  |  |  |  |  |  |  |  | 
19 | CCCCn1c(-c2ccccc2)cs/c1=N\N=C1C=C(C(C)(C)C)C(=O)C(C(C)(C)C)=C1 |  |  | > 100 | > 100 | > 100 | > 100 | > 100 | > 100 | > 100 |  |  |  |  |  |  |  |  |  | 
